In patent US12162890B2 (Novartis AG, priority 2015, dated 2024):

Biological target: HEK293 cells with stable expression of the GRIN1 gene and tetracycline-inducible expression of the GRIN2B gene (NMDA receptor, NR2B) (Homo sapiens, UniProt Q13224)
Assay: Fluo-8 Ca2+ flux assay: reversal of Ro 25-6981-mediated suppression of the Ca2+ response to co-agonist (glutamate/glycine); note: test concentration or dose not given here
Type: cell-based
Details: reversal of the Ro 25-6981 suppression of the Ca2+ response to co-agonist (glutamate/glycine)

Sequence of HEK293 cells with stable expression of the GRIN1 gene and tetracycline-inducible expression of the GRIN2B gene (NMDA receptor, NR2B) (Q13224 27-1484, other chains not shown): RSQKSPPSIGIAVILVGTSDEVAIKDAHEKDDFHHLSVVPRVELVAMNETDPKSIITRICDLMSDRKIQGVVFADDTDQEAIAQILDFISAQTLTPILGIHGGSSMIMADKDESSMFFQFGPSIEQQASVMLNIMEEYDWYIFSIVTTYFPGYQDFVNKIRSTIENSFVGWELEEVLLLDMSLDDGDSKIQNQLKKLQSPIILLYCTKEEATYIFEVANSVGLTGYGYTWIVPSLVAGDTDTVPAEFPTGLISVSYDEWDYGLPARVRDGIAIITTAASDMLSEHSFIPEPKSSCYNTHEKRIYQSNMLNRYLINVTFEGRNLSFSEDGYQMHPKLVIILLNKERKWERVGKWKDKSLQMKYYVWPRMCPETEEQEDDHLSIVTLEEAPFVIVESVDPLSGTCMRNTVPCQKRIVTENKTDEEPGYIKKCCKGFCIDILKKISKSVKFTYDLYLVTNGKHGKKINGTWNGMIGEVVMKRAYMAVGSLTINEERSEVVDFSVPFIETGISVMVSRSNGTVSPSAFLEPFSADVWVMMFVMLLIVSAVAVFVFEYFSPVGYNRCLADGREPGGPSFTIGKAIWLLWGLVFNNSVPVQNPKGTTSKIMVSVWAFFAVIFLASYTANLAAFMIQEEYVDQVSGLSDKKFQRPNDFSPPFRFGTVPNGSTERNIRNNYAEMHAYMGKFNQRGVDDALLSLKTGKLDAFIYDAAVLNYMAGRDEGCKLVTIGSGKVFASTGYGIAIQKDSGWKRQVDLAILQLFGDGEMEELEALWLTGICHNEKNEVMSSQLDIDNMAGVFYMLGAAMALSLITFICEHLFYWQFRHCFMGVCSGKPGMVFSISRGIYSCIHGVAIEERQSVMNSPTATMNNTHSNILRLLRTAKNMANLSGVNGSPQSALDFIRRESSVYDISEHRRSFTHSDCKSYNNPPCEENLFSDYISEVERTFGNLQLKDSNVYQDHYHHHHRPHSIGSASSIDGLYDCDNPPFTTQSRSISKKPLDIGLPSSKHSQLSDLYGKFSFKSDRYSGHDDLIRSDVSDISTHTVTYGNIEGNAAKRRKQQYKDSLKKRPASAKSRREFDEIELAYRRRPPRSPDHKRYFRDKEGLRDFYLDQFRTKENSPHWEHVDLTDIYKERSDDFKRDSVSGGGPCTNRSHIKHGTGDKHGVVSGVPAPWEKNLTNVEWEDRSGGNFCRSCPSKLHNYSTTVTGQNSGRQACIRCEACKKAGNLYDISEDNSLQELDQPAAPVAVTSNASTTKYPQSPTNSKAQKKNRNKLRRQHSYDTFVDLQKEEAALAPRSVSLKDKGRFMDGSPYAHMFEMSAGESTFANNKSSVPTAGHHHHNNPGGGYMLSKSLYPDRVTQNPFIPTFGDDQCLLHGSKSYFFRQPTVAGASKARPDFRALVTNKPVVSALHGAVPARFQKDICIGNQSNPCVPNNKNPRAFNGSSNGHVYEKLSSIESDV

Q: O=C(Cn1ccc2scc(-c3ccc(Cl)c(C(F)(F)F)c3)c2c1=O)N1CCCC1 [Example 1, 3-(4-chloro-3-(trifluoromethyl)phenyl)-5-(2-oxo-2-(pyrrolidin-1-yl)ethyl)thieno[3,2-c]pyridin-4(5H)-one] was tested. Which “Response Recovered (%)” value did it give?
A: 83%

Q: Which “Response Recovered (%)” value does the source give for O=C(Cn1ccc2scc(-c3ccc(Cl)c(F)c3)c2c1=O)N1CCCC1 [Example 2, 3-(4-chloro-3-fluorophenyl)-5-(2-oxo-2-(pyrrolidin-1-yl)ethyl)thieno[3,2-c]pyridin-4(5H)-one] here?
A: 34%

Q: How did the “Response Recovered (%)” value turn out when O=C(Cn1ccc2scc(-c3ccc(F)c(Cl)c3)c2c1=O)N1CCCC1 [Example 3, 3-(3-chloro-4-fluorophenyl)-5-(2-oxo-2-(pyrrolidin-1-yl)ethyl)thieno[3,2-c]pyridin-4(5H)-one] was run?
A: 60%

Q: For O=C(Cn1ccc2scc(-c3ccc(Cl)c(C(F)(F)F)c3)c2c1=O)N1CCC(F)C1 (stereo not shown) [Example 4, 3-(4-chloro-3-(trifluoromethyl)phenyl)-5-(2-(3-fluoropyrrolidin-1-yl)-2-oxoethyl)thieno[3,2-c]pyridin-4(5H)-one], which “Response Recovered (%)” value is on record?
A: 107%

Q: Which “Response Recovered (%)” value does the source give for O=C(Cn1ccc2scc(-c3ccc(Cl)c(C(F)(F)F)c3)c2c1=O)N1CC(F)(F)C1 [Example 5, 3-(4-chloro-3-(trifluoromethyl)phenyl)-5-(2-(3,3-difluoroazetidin-1-yl)-2-oxoethyl)thieno[3,2-c]pyridin-4(5H)-one] here?
A: 139%

Q: How did the “Response Recovered (%)” value turn out when O=C(Cn1ccc2scc(-c3ccc(Cl)c(F)c3)c2c1=O)N1CC(F)(F)C1 [Example 6, 3-(4-chloro-3-fluorophenyl)-5-(2-(3,3-difluoroazetidin-1-yl)-2-oxoethyl)thieno[3,2-c]pyridin-4(5H)-one] was run?
A: 41%

Q: With O=C(Cn1ccc2scc(-c3ccc(Cl)c(F)c3)c2c1=O)N1CCC(F)C1 (stereo not shown) [Example 7, 3-(4-chloro-3-fluorophenyl)-5-(2-(3-fluoropyrrolidin-1-yl)-2-oxoethyl)thieno[3,2-c]pyridin-4(5H)-one] as the compound, how does the “Response Recovered (%)” value read?
A: 49%

Q: For O=C(Cn1ccc2scc(-c3ccc(F)c(Cl)c3)c2c1=O)N1CC(F)(F)C1 [Example 8, 3-(3-Chloro-4-fluorophenyl)-5-[2-(3,3-difluoro-azetidin-1-yl)-2-oxo-ethyl]-5H-thieno[3,2-c]pyridin-4-one], which “Response Recovered (%)” value is on record?
A: 66%

Q: O=C(Cn1ccc2scc(-c3ccc(F)c(Cl)c3)c2c1=O)N1CCC(F)C1 (stereo not shown) [Example 9, 3-(3-Chloro-4-fluoro-phenyl)-5-[2-(3-fluoro-pyrrolidin-1-yl)-2-oxo-ethyl]-5H-thieno[3,2-c]pyridin-4-one] was tested. Which “Response Recovered (%)” value did it give?
A: 81%

Q: For O=C(Cn1ccc2scc(-c3ccc(Cl)c(Cl)c3)c2c1=O)N1CCC(F)C1 (stereo not shown) [Example 10, 3-(3,4-dichlorophenyl)-5-(2-(3-fluoropyrrolidin-1-yl)-2-oxoethyl)thieno[3,2-c]pyridin-4(5H)-one], which “Response Recovered (%)” value is on record?
A: 102%

Q: For O=C(Cn1ccc2scc(-c3ccc(F)c(C(F)(F)F)c3)c2c1=O)N1CCC(F)C1 (stereo not shown) [Example 11, 3-(4-fluoro-3-(trifluoromethyl)phenyl)-5-(2-(3-fluoropyrrolidin-1-yl)-2-oxoethyl)thieno[3,2-c]pyridin-4(5H)-one], which “Response Recovered (%)” value is on record?
A: 99%

Q: With O=C(Cn1ccc2scc(-c3cnc(Cl)c(Cl)c3)c2c1=O)N1CCC(F)C1 (stereo not shown) [Example 12, 3-(5,6-dichloropyridin-3-yl)-5-(2-(3-fluoropyrrolidin-1-yl)-2-oxoethyl)thieno[3,2-c]pyridin-4(5H)-one] as the compound, how does the “Response Recovered (%)” value read?
A: 35%

Q: For O=C(Cn1ccc2scc(-c3ccc(C(F)(F)F)c(Cl)c3)c2c1=O)N1CCC(F)C1 (stereo not shown) [Example 13, 3-(3-chloro-4-(trifluoromethyl)phenyl)-5-(2-(3-fluoropyrrolidin-1-yl)-2-oxoethyl)thieno[3,2-c]pyridin-4(5H)-one], which “Response Recovered (%)” value is on record?
A: 90%
